Results published in PubChem BioAssay AID292 (DTP/NCI, 2004).
“And” between values parts separate entries of the source, which are not always exact repeats. Equal values may be shown once. Toxic doses and inconclusive results are not listed.

Tested on: B6C3F1 mice, ip Sarcoma M5076, median survival T/C
Test: NCI In Vivo Anticancer Drug Screen. Data for tumor model Sarcoma M5076 (intraperitoneal) in B6C3F1 mice
Conditions: endpoint: median survival time, higher = longer survival
Outline: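 Survival measured in treated (T) and vehicle control (C) mice with transplantable tumour; result given as T divided by C.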

[1] = dose: 25.0 mg/kg/injection, schedule: Q04DX004 (ip), vehicle: Klucel (hydroxypropylcellulose) (HPC)
[2] = dose: 50.0 mg/kg/injection, schedule: Q04DX004 (ip), vehicle: Klucel (hydroxypropylcellulose) (HPC)
[3] = dose: 100.0 mg/kg/injection, schedule: Q04DX004 (ip), vehicle: Klucel (hydroxypropylcellulose) (HPC)
[4] = dose: 200.0 mg/kg/injection, schedule: Q04DX004 (ip), vehicle: Klucel (hydroxypropylcellulose) (HPC)
[5] = dose: 400.0 mg/kg/injection, schedule: Q04DX004 (ip), vehicle: Klucel (hydroxypropylcellulose) (HPC)
[6] = dose: 75.0 mg/kg/injection, schedule: Q04DX004 (ip), vehicle: saline
[7] = dose: 6.25 mg/kg/injection, schedule: Q04DX004 (ip), vehicle: saline with Tween-80
[8] = dose: 12.5 mg/kg/injection, schedule: Q04DX004 (ip), vehicle: saline with Tween-80
[9] = dose: 25.0 mg/kg/injection, schedule: Q04DX004 (ip), vehicle: saline with Tween-80
[10] = dose: 50.0 mg/kg/injection, schedule: Q04DX004 (ip), vehicle: saline with Tween-80
[11] = dose: 100.0 mg/kg/injection, schedule: Q04DX004 (ip), vehicle: saline with Tween-80
[12] = dose: 75.0 mg/kg/injection, schedule: Q04DX004 (ip), vehicle: saline with Tween-80
[13] = dose: 150.0 mg/kg/injection, schedule: Q04DX004 (ip), vehicle: saline with Tween-80
[14] = dose: 300.0 mg/kg/injection, schedule: Q04DX004 (ip), vehicle: saline with Tween-80
[15] = dose: 600.0 mg/kg/injection, schedule: Q04DX004 (ip), vehicle: saline with Tween-80
[16] = dose: 37.5 mg/kg/injection, schedule: Q04DX004 (ip), vehicle: saline with Tween-80

C=CCOc1cc2c(cc1C(C)c1ccc(OC)cc1)OCO2 (stereo unspecified)
T/C [1]: 98 % of control
T/C [2]: 116 % of control
T/C (dose: 75.0 mg/kg/injection, schedule: Q04DX004 (ip), vehicle: Klucel (hydroxypropylcellulose) (HPC)): 113 % of control
T/C [3]: 115 % of control
T/C (dose: 144.0 mg/kg/injection, schedule: Q04DX004 (ip), vehicle: Klucel (hydroxypropylcellulose) (HPC)): 118 % of control
T/C (dose: 150.0 mg/kg/injection, schedule: Q04DX004 (ip), vehicle: Klucel (hydroxypropylcellulose) (HPC)): 106 % of control
T/C [4]: 123 % of control
T/C (dose: 240.0 mg/kg/injection, schedule: Q04DX004 (ip), vehicle: Klucel (hydroxypropylcellulose) (HPC)): 108 % of control
T/C (dose: 300.0 mg/kg/injection, schedule: Q04DX004 (ip), vehicle: Klucel (hydroxypropylcellulose) (HPC)): 124 % of control
T/C [5]: 108 % of control

NC(C(=O)O)/C1=C/CCCCCC1 (stereo unspecified)
T/C [1]: 100 % of control
T/C [2]: 98 % of control
T/C [3]: 100 % of control
T/C [4]: 111 % of control
T/C [5]: 103 % of control

O=C(O)C(O)C(O)C1[O][Sb][O]C1C(=O)O (stereo unspecified)
T/C (dose: 9.37 mg/kg/injection, schedule: Q04DX004 (ip), vehicle: saline): 100 % of control
T/C (dose: 9.38 mg/kg/injection, schedule: Q04DX004 (ip), vehicle: saline): 107 % of control
T/C (dose: 18.75 mg/kg/injection, schedule: Q04DX004 (ip), vehicle: saline): 99 % of control and 110 % of control
T/C (dose: 37.5 mg/kg/injection, schedule: Q04DX004 (ip), vehicle: saline): 110 % of control and 114 % of control
T/C [6]: 99 % of control and 111 % of control

CCOC(=O)/C=C/C(=O)N1CCN(C(=O)/C=C/C(=O)OCC)C(C)C1 (stereo unspecified)
T/C [1]: 98 % of control
T/C [2]: 107 % of control
T/C [3]: 98 % of control
T/C [4]: 108 % of control
T/C [5]: 100 % of control

N#Cc1c(N)[nH]c2ccc(Sc3ccccc3)cc12
T/C [7]: 101 % of control
T/C [8]: 112 % of control
T/C (dose: 15.0 mg/kg/injection, schedule: Q04DX004 (ip), vehicle: saline with Tween-80): 108 % of control
T/C [9]: 109 % of control
T/C (dose: 30.0 mg/kg/injection, schedule: Q04DX004 (ip), vehicle: saline with Tween-80): 97 % of control
T/C (dose: 36.0 mg/kg/injection, schedule: Q04DX004 (ip), vehicle: saline with Tween-80): 104 % of control
T/C [10]: 114 % of control
T/C (dose: 60.0 mg/kg/injection, schedule: Q04DX004 (ip), vehicle: saline with Tween-80): 95 % of control and 104 % of control
T/C [11]: 116 % of control
T/C (dose: 120.0 mg/kg/injection, schedule: Q04DX004 (ip), vehicle: saline with Tween-80): 110 % of control
T/C (dose: 240.0 mg/kg/injection, schedule: Q04DX004 (ip), vehicle: saline with Tween-80): 113 % of control

O=C(O)c1ccc(NC(=O)C2C(=O)C(=O)N(c3ccc(C(=O)O)cc3)C2=O)cc1 (stereo unspecified)
T/C (dose: 50.0 mg/kg/injection, schedule: Q04DX004 (ip), vehicle: Klucel + Tween-80): 108 % of control
T/C (dose: 100.0 mg/kg/injection, schedule: Q04DX004 (ip), vehicle: Klucel + Tween-80): 100 % of control
T/C (dose: 200.0 mg/kg/injection, schedule: Q04DX004 (ip), vehicle: Klucel + Tween-80): 91 % of control
T/C (dose: 400.0 mg/kg/injection, schedule: Q04DX004 (ip), vehicle: Klucel + Tween-80): 97 % of control

O=C1C=CC(=CC=C2C=CN(CCCCCCCCCCCO)C=C2)C=C1
T/C [7]: 102 % of control
T/C [8]: 109 % of control
T/C [9]: 102 % of control
T/C [10]: 111 % of control

O=C1N[C@@H]([C@H]2CC[C@H](Cl)CN2)C(=O)N[C@H]1[C@H]1CC[C@H](Cl)CN1
T/C (dose: 0.5 mg/kg/injection, schedule: Q04DX005 (ip), vehicle: saline): 115 % of control
T/C (dose: 2.0 mg/kg/injection, schedule: Q04DX005 (ip), vehicle: saline): 185 % of control
T/C (dose: 4.0 mg/kg/injection, schedule: Q04DX005 (ip), vehicle: saline): 319 % of control
T/C (dose: 8.0 mg/kg/injection, schedule: Q04DX005 (ip), vehicle: saline): 319 % of control

CO[C@@]12[C@@H]3N[C@@H]3CN1C1=C(C(=O)C(NCC3CCCO3)=C(C)C1=O)[C@@H]2COC(N)=O (stereo partly specified)
T/C (dose: 1.5 mg/kg/injection, schedule: Q04DX004 (ip), vehicle: distilled water + Tween-80): 117 % of control
T/C (dose: 3.0 mg/kg/injection, schedule: Q04DX004 (ip), vehicle: distilled water + Tween-80): 118 % of control
T/C (dose: 12.0 mg/kg/injection, schedule: Q04DX004 (ip), vehicle: distilled water + Tween-80): 160 % of control
T/C (dose: 24.0 mg/kg/injection, schedule: Q04DX004 (ip), vehicle: distilled water + Tween-80): 191 % of control

CC(=O)Nc1ccc(O)c(O)c1
T/C [12]: 107 % of control
T/C [13]: 113 % of control
T/C [14]: 105 % of control
T/C [15]: 101 % of control
T/C (dose: 1200.0 mg/kg/injection, schedule: Q04DX004 (ip), vehicle: saline with Tween-80): 104 % of control

O=CC(O)C(O)C(O)C(O)CO (stereo unspecified)
T/C [6]: 93 % of control
T/C (dose: 150.0 mg/kg/injection, schedule: Q04DX004 (ip), vehicle: saline): 96 % of control
T/C (dose: 300.0 mg/kg/injection, schedule: Q04DX004 (ip), vehicle: saline): 96 % of control
T/C (dose: 600.0 mg/kg/injection, schedule: Q04DX004 (ip), vehicle: saline): 98 % of control
T/C (dose: 1200.0 mg/kg/injection, schedule: Q04DX004 (ip), vehicle: saline): 93 % of control

c1ccc(OCC2CO2)c(OCC2CO2)c1 (stereo unspecified)
T/C [10]: 111 % of control and 121 % of control
T/C [11]: 118 % of control and 123 % of control
T/C (dose: 200.0 mg/kg/injection, schedule: Q04DX004 (ip), vehicle: saline with Tween-80): 156 % of control and 173 % of control

Cc1nnc2nc(N)[nH]n2c1=O
T/C (dose: 25.0 mg/kg/injection, schedule: Q04DX004 (ip), vehicle: water): 97 % of control
T/C (dose: 50.0 mg/kg/injection, schedule: Q04DX004 (ip), vehicle: water): 104 % of control
T/C (dose: 100.0 mg/kg/injection, schedule: Q04DX004 (ip), vehicle: water): 96 % of control

CCOC(=O)/C=C1\CCC(C)n2c1nccc2=O (stereo unspecified)
T/C [16]: 102 % of control
T/C [12]: 86 % of control
T/C [13]: 96 % of control
T/C [14]: 101 % of control
T/C [15]: 106 % of control

O=C1C2CC=CCC2C(=O)N1SC(Cl)(Cl)Cl (stereo unspecified)
T/C (dose: 3.13 mg/kg/injection, schedule: Q04DX004 (ip), vehicle: saline with Tween-80): 110 % of control
T/C [7]: 120 % of control
T/C [8]: 91 % of control
T/C [9]: 100 % of control

CCCC1CCC(=C2C(=O)CCC2=O)O1 (stereo unspecified)
T/C [9]: 101 % of control
T/C [10]: 95 % of control
T/C [11]: 96 % of control

NNC(=O)c1ccncc1
T/C (dose: 25.0 mg/kg/injection, schedule: Q04DX004 (ip), vehicle: saline): 102 % of control
T/C (dose: 50.0 mg/kg/injection, schedule: Q04DX004 (ip), vehicle: saline): 102 % of control
T/C (dose: 100.0 mg/kg/injection, schedule: Q04DX004 (ip), vehicle: saline): 95 % of control
T/C (dose: 200.0 mg/kg/injection, schedule: Q04DX004 (ip), vehicle: saline): 106 % of control

COc1ccc(OC)c(N2C(=O)C(=O)C(C(C)=O)C2=O)c1 (stereo unspecified)
T/C [2]: 104 % of control
T/C [3]: 100 % of control

O=C(CN1CCC(O)(c2ccc(F)cc2)CC1)N1CCN(C/C=C/c2ccccc2)CC1
T/C [16]: 103 % of control
T/C [12]: 100 % of control
T/C [13]: 102 % of control
T/C [14]: 94 % of control
T/C [15]: 95 % of control
